Reference: patent US20130143929A1, “FUNGICIDAL IMIDAZOLES” (EI DU PONT DE NEMOURS AND COMPANY, priority 2010, published 2013)
Marks after values point to notes of the source that are not given here.

Tests used:
Format in all cases: in vivo
[1] = system: Septoria tritici (the causal agent of wheat leaf blotch); assay: Test B: wheat leaf blotch, preventive spray on wheat seedlings, visual disease rating; conditions: wheat leaf blotch, preventive spray on wheat seedlings
Source text: (§1) General protocol for preparing test suspensions for Tests A-D: the test compounds were first dissolved in acetone in an amount equal to 3% of the final volume and then suspended at the desired concentration (in ppm) in acetone and purified water (50/50 mix by volume) containing 250 ppm of the surfactant Trem® 014 (polyhydric alcohol esters). The resulting test suspensions were then used in Tests A-D. Spraying a 200 ppm test suspension to the point of run-off on the test plants was the equivalent of a rate of 800 g/ha.
The test suspension was sprayed to the point of run-off on wheat seedlings. The following day the seedlings were inoculated with a spore suspension of Septoria tritici (the causal agent of wheat leaf blotch) and incubated in a saturated atmosphere at 24° C. for 48 h, and then moved to a growth chamber at 20° C. for 19 days, after which time visual disease ratings were made.
(§2) Results for Tests A-E are given in Table A. In the Table, a rating of 100 indicates 100% disease control and a rating of 0 indicates no disease control (relative to the controls). A dash (—) indicates no test results. An asterisk “*” next to the rating value indicates a 40 ppm test suspension was used.

[2] = system: Blumeria graminis f. sp. tritici (also known as Erysiphe graminis f. sp. tritici, the causal agent of wheat powdery mildew); assay: Test D: wheat powdery mildew, preventive spray on wheat seedlings, visual disease rating; conditions: wheat powdery mildew, preventive spray on wheat seedlings
Source text: as §1
The test suspension was sprayed to the point of run-off on wheat seedlings. The following day the seedlings were inoculated with a spore dust of Blumeria graminis f. sp. tritici, (also known as Erysiphe graminis f. sp. tritici, the causal agent of wheat powdery mildew) and incubated in a growth chamber at 20° C. for 8 days, after which time visual disease ratings were made.
as §2

[3] = system: Puccinia recondite f. sp. tritici (the causal agent of wheat leaf rust); assay: Test A: wheat leaf rust, preventive spray on wheat seedlings, visual disease rating; conditions: wheat leaf rust, preventive spray on wheat seedlings
Source text: as §1
The test suspension was sprayed to the point of run-off on wheat seedlings. The following day the seedlings were inoculated with a spore suspension of Puccinia recondite f. sp. tritici (the causal agent of wheat leaf rust) and incubated in a saturated atmosphere at 20° C. for 24 h, and then moved to a growth chamber at 20° C. for 7 days, after which time visual disease ratings were made.
as §2

[4] = system: Botrytis cinerea (the causal agent of tomato Botrytis); assay: Test C: tomato Botrytis, preventive spray on tomato seedlings, visual disease rating; conditions: tomato Botrytis, preventive spray on tomato seedlings
Source text: as §1
The test suspension was sprayed to the point of run-off on tomato seedlings. The following day the seedlings were inoculated with a spore suspension of Botrytis cinerea (the causal agent of tomato Botrytis) and incubated in a saturated atmosphere at 20° C. for 48 h, and then moved to a growth chamber at 24° C. for 3 days, after which time visual disease ratings were made.
as §2

[5] = asterisk: 40 ppm test suspension
[6] = no asterisk (standard test suspension concentration, not 40 ppm)

Structure (SMILES) | Test B rating (100 = 100% disease control, 0 = no disease control relative to the controls) [1, 5] | Test D rating (100 = 100% disease control, 0 = no disease control relative to the controls) [2, 5] | Test A rating (100 = 100% disease control, 0 = no disease control relative to the controls) [3, 5] | Test C rating (100 = 100% disease control, 0 = no disease control relative to the controls) [4, 5] | Test B rating (100 = 100% disease control, 0 = no disease control relative to the controls) [1, 6] [%] | Test D rating (100 = 100% disease control, 0 = no disease control relative to the controls) [2, 6] [%] | Test A rating (100 = 100% disease control, 0 = no disease control relative to the controls) [3, 6] [%] | Test C rating (100 = 100% disease control, 0 = no disease control relative to the controls) [4, 6] [%]
COc1cc(F)c(C(O)c2c(Cl)ncn2-c2ccc(F)cc2Cl)c(F)c1 (racemic) [compound 234] | 79* % | 43* % | 99* % | 26* % |  |  |  | 
COc1cc(F)c(C(O)c2c(Br)nc(Br)n2-c2ccc(F)cc2Cl)c(F)c1 (racemic) [compound 235] | 100* % | 99* % | 100* % | 100* % |  |  |  | 
COc1ccc(C(O)c2c(Cl)nc(Cl)n2-c2ccc(F)cc2F)c(Cl)c1 (racemic) [compound 236] | 100* % | 99* % | 100* % | 100* % |  |  |  | 
COc1ccc(C(O)c2c(Cl)nc(Br)n2-c2c(F)cccc2F)c(Cl)c1 (racemic) [compound 237] | 100* % | 98* % | 100* % | 100* % |  |  |  | 
Cc1nc(Br)c(C(O)c2ccc(F)cc2Cl)n1-c1ccc(F)cc1F (racemic) [compound 240] | 100* % | 89* % | 99* % | 99* % |  |  |  | 
Cc1nc(Cl)c(C(O)c2ccc(F)cc2Cl)n1-c1ccc(F)cc1F (racemic) [compound 241] | 100* % | 21* % | 100* % | 99* % |  |  |  | 
Cc1ncc(C(O)c2ccc(Cl)cc2)n1-c1ccc(Cl)cc1Cl (racemic) [compound 242] | 50* % | 0* % | 94* % | 29* % |  |  |  | 
Cc1nc(Br)c(C(O)c2ccc(Cl)cc2)n1-c1ccc(Cl)cc1Cl (racemic) [compound 243] | 95* % | 79* % | 98* % | 91* % |  |  |  | 
Cc1nc(Cl)c(C(O)c2ccc(Cl)cc2)n1-c1ccc(Cl)cc1Cl (racemic) [compound 244] | 100* % | 21* % | 98* % | 78* % |  |  |  | 
Cc1nc(C)n(-c2c(F)cc(F)cc2Cl)c1C(O)c1ccc(F)cc1F (racemic) [compound 245] | 100* % | 84* % | 100* % | 91* % |  |  |  | 
Cc1nc(C)n(-c2c(F)cc(Cl)cc2F)c1C(O)c1ccc(F)cc1F (racemic) [compound 246] | 100* % | 0* % | 100* % | 37* % |  |  |  | 
Cc1nc(Br)n(-c2c(F)cc(F)cc2Cl)c1C(O)c1ccc(F)cc1F (racemic) [compound 250] | 100* % | 100* % | 100* % | 100* % |  |  |  | 
Cc1ncc(C(O)c2ccc(F)cc2Br)n1-c1ccc(F)cc1Cl (racemic) [compound 251] |  |  |  |  | 93 | 0 | 100 | 98
Cc1nc(Br)c(C(O)c2ccc(F)cc2Br)n1-c1ccc(F)cc1Cl (racemic) [compound 253] |  |  |  |  | 100 | 27 | 100 | 100
COc1ccc(C(O)c2c(Br)nc(C)n2-c2ccc(F)cc2Cl)c(Cl)c1 (racemic) [compound 254] |  |  |  |  | 100 | 83 | 100 | 100
COc1ccc(C(O)c2c(Cl)nc(C)n2-c2ccc(F)cc2Cl)c(Cl)c1 (racemic) [compound 255] |  |  |  |  | 96 | 0 | 100 | 8
Cc1ncc(C(O)c2ccc(Cl)cc2Cl)n1-c1ccc(F)cc1F (racemic) [compound 256] |  |  |  |  | 6 | 0 | 55 | 0
